Among the data in publication PMC6934184, “Selective DNA-PKcs inhibition extends the therapeutic index of localized radiotherapy and chemotherapy” (The Journal of Clinical Investigation, 2019) are inhibition values, retold here.

In this experiment the target is T1, CLK1 (Homo sapiens, UniProt P49759).
T1 construct: purchased Thermo Fisher Scientific (Life Technologies) SelectScreen
Kind of experiment: SelectScreen Z'LYTE. The experiment is classed as biochemical. In short, it runs like this:
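Compound tested in SelectScreen activity assays, Z'LYTE for CSF1R, CDK1/cyclin B and MAP2K6 and Adapta for CAMK1. ATP for CAMK1 was listed as 10, and Km app was used for CSF1R. Results are expressed in percent.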

One may read the inhibition as the relative decrease from the control value, in per cent. Lower therefore signals a response near the control.

T1 sequence (P49759 whole entry): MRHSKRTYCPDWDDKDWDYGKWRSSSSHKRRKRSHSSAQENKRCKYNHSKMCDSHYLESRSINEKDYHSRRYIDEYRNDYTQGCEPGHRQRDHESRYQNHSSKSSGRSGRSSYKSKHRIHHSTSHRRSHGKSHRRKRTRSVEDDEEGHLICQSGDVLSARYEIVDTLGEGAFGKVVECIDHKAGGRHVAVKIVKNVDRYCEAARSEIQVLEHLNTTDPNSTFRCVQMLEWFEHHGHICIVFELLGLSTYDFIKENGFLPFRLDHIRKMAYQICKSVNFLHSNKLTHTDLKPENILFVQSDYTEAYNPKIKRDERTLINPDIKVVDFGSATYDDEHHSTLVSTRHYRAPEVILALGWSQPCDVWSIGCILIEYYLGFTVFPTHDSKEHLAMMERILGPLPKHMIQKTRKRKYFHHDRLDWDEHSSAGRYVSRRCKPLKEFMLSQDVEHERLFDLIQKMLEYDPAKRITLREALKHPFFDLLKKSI

`CN(C(=O)CN1CCOCC1)c1ccc2sc3c(-c4cccc5c(=O)cc(N6CC7CCC(C6)O7)oc45)cccc3c2c1` [NU5455]: the inhibition at 1 µM came to 11.7%.
